Assay results as given in patent US20160045487A1, “COMPOSITIONS AND METHODS FOR TREATING NEUROPATHY” (CHILDEREN'S MEDICAL CENTER CORPORATION, priority 2013, published 2016).

Molecular target: T1, RET (Homo sapiens, UniProt P07949+P56159)
T1 construct: endogenous in cells; host or cells: SH-SY5Y (SH-SY5Y-THpGL3) human neuroblastoma cells
Test: RET phosphorylation phospho-tyrosine Western blot in SH-SY5Y cells
Type: cell-based
Source text: One goal of these studies was to determine if XIB4035 could be used for treating SFN in humans. Using the Neuro2A (N2A) murine neuroblastoma cell line, Tokugawa et al. (supra) reported XIB4035 as a competitive agonist for the GDNF receptor GFRα1 that activates the RET receptor. Since populations of DRG sensory neurons express different GFRα receptors, thus making them preferentially responsive to the particular ligands, it was important to determine if XIB4035 was specific to GFRα1 or could act on other family members. Since PSPN has no effect on peripheral sensory neurons, the GFRα1, GFRα2, and GFRα3 receptors were the focus of these studies. The SH-SY5Y, a human neuroblastoma cell line expressing mRNA for GFRα1, GFRα2, and GFRα3, was used to perform two cell-based assays; immunoblots measuring RET phosphorylation and a luciferase reporter assay using the tyrosine hydroxylase (TH) promoter. For the latter two paradigms were used, either overnight treatment immediately followed by luciferase activity measurements or 10 minute treatments followed by washout and overnight incubation prior to measurements. GDNF and ARTN induced robust TH-luciferase activity in a dose dependent manner (FIG. 3E). Because the responses to GDNF and ARTN were more robust, these two factors were chosen for further analysis.
Since the original report argued that XIB4035 displaces GDNF binding to GFRα1 expressing cells (FIG. 2 in Tokugawa et al., Neurochem Int 42, 81-86 (2003).), potentially ARTN, on TH-luciferase activity and Ret phosphorylation. […] In this experiment, cells were treated with GDNF or ARTN with or without XIB4035 for 10 minutes and cell lysates were either collected immediately or treatment was washed out and replaced with growth media for 30, 60, or 120 minutes. […] Therefore, we tested cells expressing only one GFRα using either N2A cells (which express RET) transfected with GFRα1 or GFRα3 expression constructs, or B(E)2-C cells, which express only GFRα2 together with RET. […]

T1 sequence (P07949 29-1114): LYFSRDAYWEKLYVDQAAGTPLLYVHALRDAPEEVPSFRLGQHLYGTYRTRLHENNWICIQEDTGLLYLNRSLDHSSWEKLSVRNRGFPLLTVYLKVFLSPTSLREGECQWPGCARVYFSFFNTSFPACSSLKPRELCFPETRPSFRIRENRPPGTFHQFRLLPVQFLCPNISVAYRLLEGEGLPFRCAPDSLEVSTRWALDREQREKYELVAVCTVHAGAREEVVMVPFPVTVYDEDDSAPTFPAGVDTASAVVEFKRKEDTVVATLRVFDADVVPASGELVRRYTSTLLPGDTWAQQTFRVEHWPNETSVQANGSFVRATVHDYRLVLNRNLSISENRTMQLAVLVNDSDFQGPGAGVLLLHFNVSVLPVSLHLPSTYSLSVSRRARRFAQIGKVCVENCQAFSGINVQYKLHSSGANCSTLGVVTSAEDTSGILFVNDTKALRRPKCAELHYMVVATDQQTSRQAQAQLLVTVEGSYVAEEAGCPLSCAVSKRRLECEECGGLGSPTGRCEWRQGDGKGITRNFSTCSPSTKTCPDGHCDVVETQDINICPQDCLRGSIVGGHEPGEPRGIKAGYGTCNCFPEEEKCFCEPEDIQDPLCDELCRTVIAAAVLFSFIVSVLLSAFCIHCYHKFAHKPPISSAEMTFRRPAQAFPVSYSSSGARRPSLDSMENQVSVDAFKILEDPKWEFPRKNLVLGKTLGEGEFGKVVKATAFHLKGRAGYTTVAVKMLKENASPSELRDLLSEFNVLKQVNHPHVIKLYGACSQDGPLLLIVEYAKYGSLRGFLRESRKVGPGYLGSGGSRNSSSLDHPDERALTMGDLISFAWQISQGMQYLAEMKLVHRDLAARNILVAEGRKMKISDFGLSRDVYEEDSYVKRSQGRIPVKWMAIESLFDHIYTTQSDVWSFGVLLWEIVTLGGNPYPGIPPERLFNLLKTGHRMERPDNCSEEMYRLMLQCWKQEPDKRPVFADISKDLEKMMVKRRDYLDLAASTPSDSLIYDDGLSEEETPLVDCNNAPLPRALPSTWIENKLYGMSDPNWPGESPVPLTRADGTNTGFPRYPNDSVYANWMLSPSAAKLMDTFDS
T1 sequence (P56159 25-429 limits assumed): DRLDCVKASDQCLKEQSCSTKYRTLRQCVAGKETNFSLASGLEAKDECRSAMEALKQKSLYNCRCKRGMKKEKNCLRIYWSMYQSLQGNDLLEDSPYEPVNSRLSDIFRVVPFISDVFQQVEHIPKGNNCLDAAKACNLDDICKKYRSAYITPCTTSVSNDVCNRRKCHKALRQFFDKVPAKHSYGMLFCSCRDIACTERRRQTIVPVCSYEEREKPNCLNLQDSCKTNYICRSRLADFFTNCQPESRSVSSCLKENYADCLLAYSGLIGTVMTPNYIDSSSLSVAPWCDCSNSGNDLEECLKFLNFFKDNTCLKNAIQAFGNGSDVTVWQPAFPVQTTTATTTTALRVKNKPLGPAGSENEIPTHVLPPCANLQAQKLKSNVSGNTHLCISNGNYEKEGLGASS

SMILES: CCN(CC)CCCC(C)Nc1cc(/C=C/c2ccccc2Cl)nc2cc(Cl)ccc12 (centres unmarked) [XIB4035, N4-{7-chloro-2-[(E)-2-(2-chloro-phenyl)-vinyl]-quinolin-4-yl}-N1,N1-diethyl-pentane-1,4-diamine]
- duration of ligand-induced RET phosphorylation after washout (20 μM XIB4035 with 2 nM GDNF or 1 nM ARTN, 10 minutes treatment): at least 120 minutes
- induction of RET phosphorylation (XIB4035 alone, various concentrations, two or 10 minutes): failed to induce RET phosphorylation
